Measurements published in patent publication US20050266420A1, “Multigene predictors of response to chemotherapy” (Board of Regents, The University of Texas System, priority 2004, published 2005).
Like-named read-outs stand apart in the source and are kept apart here.

Columns and labels:
[1] = test system: ZR75.1 breast cancer cells; assay: ATP cell viability assay (CellTiter-Glo) after siRNA transfection; type: cell-based, human; conditions: 48 h drug exposure; for Effect of Tau down-regulation on sensitivity to the drug: ZR75.1 cells, Tau siRNA; for IC50: Homo sapiens, ZR-75-1, 48 h, read-out: IC50 concentration of paclitaxel
Excerpt: Small interfering RNA studies. Two siRNA oligonucleotides directed against microtubule associated protein Tau (genbank accession number NM_016835.1) were ordered from Qiagen. Breast cancer cell lines were screened for Tau protein expression by Western blot analysis using a monoclonal anti-Tau antibody (#13-1400: clone T14, Zymed, CA). ZR75.1 cells were selected for siRNA studies and were transfected with a control siRNA (directed against lamin) or 2 distinct anti-Tau siRNA (5′-[…]-3′ (SEQ ID NO:194) and 5′-[…]-3′) (SEQ ID NO:195) constructs. Five hundred nanograms of siRNA was transfected using 1.5 μl RNAiFect (Qiagen) onto 1-3×10^4 cells in 96-well plates or 5 μg of siRNA was transfected using 15 μl RNAiFect (Qiagen) onto 1.5-4×10^5 cells in 6-well plates following the manufactures instructions.
In vitro apoptosis and cell growth assays. Twenty-four hours after siRNA transfection, the medium was changed and cells were treated with various concentrations of paclitaxel and epirubicin. Proliferation rates were determined with CellTiter-Glo® Luminescent Cell Viability Assay, (Promega) after 48 hours of drug exposure according to the manufacturer's instructions. Chemosensitivity was determined from three separate experiments. Growth curves were generated with GraphPad Prism 4.01 (GraphPad Software, San Diego, Calif.). The effect of Tau expression on drug uptake was assayed using a fluorescent-conjugated paclitaxel (Oregon Green 488 paclitaxel, Molecular probes, Eugene, Oreg.) or spontaneously fluorescent epirubicin (Kimichi-Sarfaty et al., 2002; Harris et al., 2003). Forty-eight hours after siRNA transfection, 3×10^5 cells were trypsinized and resuspended in 1 ml of regular medium containing 1 μM of fluorescent paclitaxel or 16 μM of epirubicin and incubated at 37° C. for 20 to 80 min. The pellet was resuspended in 400 μl of phosphate-buffered saline before FACS analysis (Kimichi-Sarfaty et al., 2002) using CellQuest software (BD Biosciences, San Jose, Calif.). Data were recorded by the FACScan as arbitrary units. The amount of fluorescence per cell (arbitrary fluorescence units) was taken as the measure of drug uptake. […] Fluorescence paclitaxel uptake was also observed using an inverted fluorescent microscope.
Down regulation of Tau expression in breast cancer cells increases sensitivity to paclitaxel in vitro. […] The inventors assessed Tau protein expression in breast cancer cell lines with Western blot using an anti-Tau monoclonal antibody that recognizes Tau irrespectively of phosphorylation status. […] Twenty-four hours after siRNA transfection, cells were exposed to various concentrations of paclitaxel or epirubicin and cell viability was assessed after 48 h of drug exposure using an ATP cell viability assay. […]

ZR75.1 cells = assay: Fluorescent drug uptake by FACS in siRNA-transfected cells; type: cell-based, human; conditions: 16 μM epirubicin, versus lamin knocked-down cells
Protocol: In vitro apoptosis and cell growth assays. Twenty-four hours after siRNA transfection, the medium was changed and cells were treated with various concentrations of paclitaxel and epirubicin. Proliferation rates were determined with CellTiter-Glo® Luminescent Cell Viability Assay, (Promega) after 48 hours of drug exposure according to the manufacturer's instructions. Chemosensitivity was determined from three separate experiments. Growth curves were generated with GraphPad Prism 4.01 (GraphPad Software, San Diego, Calif.). […] Data were recorded by the FACScan as arbitrary units. The amount of fluorescence per cell (arbitrary fluorescence units) was taken as the measure of drug uptake. […] Fluorescence paclitaxel uptake was also observed using an inverted fluorescent microscope.
Tau protein reduces paclitaxel binding to tubulin and interferes with the paclitaxel induced stabilization in vitro. […] To estimate paclitaxel binding to tubulin in the presence or absence of Tau protein, the uptake of fluorescent paclitaxel in Tau siRNA-treated (Tau knock down) cells and lamin siRNA-treated control cells were measured. Forty-four hours after siRNA transfection, cells were exposed to 1 μM Oregon green-paclitaxel for 20 to 80 min and then analyzed by FACS. The amount of fluorescent paclitaxel in the cells can be assessed by plotting fluorescence intensity in the X-axis and cell count on the Y-axis. […]

tubulin = assay: Competition for fluorescent bodipy-paclitaxel binding to tubulin; design: species or system bovine; conditions: 30 min pre-incubation; Tau 15 μM or unlabelled paclitaxel 20 μM; fluorescent paclitaxel 5 μM
Protocol: (§1) Tubulin polymerization assays. Bovine brain tubulin (2 mg/ml) polymerization assays were performed in 100-μl volumes at 37° C. using the Tubulin Polymerization Assay Kit (Cytoskeleton, Inc., Denver, Colo.) and following the manufacturer recommendations. Purified Tau protein was purchased from Cytoskeleton (ref #TA01). Fluorescent Bodipy-paclitaxel was purchased from Molecular probes (Bodipy 564/570, Molecular probes, Eugene, Oreg.). OD340 was measured every 30 seconds for 30-60 min. The plots show the change in turbidity after correcting the data for the baseline absorbance.
To examine if paclitaxel binding to tubulin is affected by Tau expression, the inventors used fluorescent bodipy-paclitaxel. When fluorescent paclitaxel binds to microtubules it results in enhanced fluorescence. The inventors used this characteristic to assess the competition between Tau and paclitaxel in vitro. Fluorescent paclitaxel (5 μM) was added to a tubulin solution after 30 minutes pre-incubation with Tau (15 μM) or regular (non-fluorescent) paclitaxel (20 μM), or reaction buffer alone and fluorescence was measured 30 minutes later. […] In the control wells, the addition of fluorescent paclitaxel induced polymerization and after 30 minutes, fluorescence emission was high.

Bovine brain tubulin = assay: Tubulin polymerization assay (OD340); type: biochemical; conditions: tubulin 20 μM, 37° C.; 20 μM paclitaxel or 15 μM Tau
Protocol: as §1
Microtubules are formed in vitro by non-covalent polymerization of tubulin dimers (Desai et al., 1997; Hong et al., 1998). Microtubule associated proteins, GTP and paclitaxel increase microtubule polymerization rates which can be measured by observing an increase in absorbance at 340 nm (Lu and Wood, 1993; Rao et al., 1999). The inventors hypothesized that Tau may reduce pharmacological tubulin polymerization induced by paclitaxel. The inventors performed a kinetic spectrophotometric tubulin polymerization assay in which Tau and paclitaxel were added together to the tubulin mixture. […] Next, tubulin was pre-incubated with Tau before adding paclitaxel which approximates a more physiological sequence of drug exposure. […]

Compound | Effect of Tau down-regulation on sensitivity to the drug [1] | Fluorescence uptake in Tau knocked-down cells (ZR75.1 cells) | IC50 ([1]; ZR75.1 cells with Tau siRNA knock down) | IC50 ([1]; ZR75.1 control cells (lamin siRNA or no siRNA)) | Competition with fluorescent paclitaxel for binding to microtubules (tubulin) | Tubulin polymerization (Bovine brain tubulin)
COc1cccc2c1C(=O)c1c(O)c3c(c(O)c1C2=O)C[C@@](O)(C(=O)CO)C[C@@H]3O[C@H]1C[C@H](N)[C@@H](O)[C@H](C)O1 [epirubicin] | did not result in increased sensitivity | slightly decreased |  |  |  | 
CC(=O)O[C@H]1C(=O)[C@@]2(C)[C@H]([C@H](OC(=O)c3ccccc3)[C@]3(O)C[C@H](OC(=O)[C@H](O)[C@@H](NC(=O)c4ccccc4)c4ccccc4)C(C)=C1C3(C)C)[C@]1(OC(C)=O)CO[C@@H]1C[C@@H]2O [paclitaxel] | significantly increased the sensitivity |  | 100 nM | > 10000 nM | very high | induced tubulin polymerization
